Data published in patent US12486229B2, “Indole derivative and application thereof” (SHANGHAI MEDICILON INC., priority 2020, dated 2025).

System: TNBS induced ulcerative colitis in rats
Assay: TNBS induced ulcerative colitis in rats
Format: in vivo, rat
Settings: for Colon length / Colon weight / Colon weight/colon length / Ulcer area: 3 mg/kg oral gavage once a day for 7 days, day 8; for General anatomical view of colon, from excellent to poor: 7 days administration, SASP 360, Example 3 and Etrasimod 3, Ozanimod 10 mg/kg; for Weight: 3 mg/kg oral gavage once a day; for Drug efficacy intensity (colon weight): oral gavage for 7 consecutive days, doses as given in ranking
Description: Preparation of molding agent: 5 mL TNBS and 8.953 mL anhydrous ethanol and 26.741 sterilized water for injection. • TNBS comes from Dalian Meilun Biotechnology Co., Ltd. • Source of SPF male SD rats: Shanghai Slake Experimental Animal Co., Ltd. • Animal age at the beginning of the experiment: 8 to 10 weeks; • Animal weight at the beginning of the experiment: about 250 g; • Adaptation time: 5 to 7 days; • Animals were fasted (only water) for 24 hours. After inhalation anesthesia with isoflurane, all rats were perfused with 0.5 mL TNBS ethanol solution per rat (18 mg TNBS/rat) via rectum with latex hose, with the length of the hose entering the rectum of about 8 cm. After withdrawing the hose, the rats remained under isoflurane anesthesia, and kept in the inclined state of hip elevation for 15 minutes.
The rats after modeling were randomly divided into 5 groups: model group, positive control group using drug sulfasalazine (SASP, 360 mg/kg), test substance group using the compound of Example 3 (3 mg/kg), test substance group using Etrasimod (3 mg/kg), test substance group using Ozanimod (10 mg/kg).
At 3 hours after modeling, the animals in each group were administrated with medicine solution by oral gavage (Table 1), 5 mL/kg body weight (10 mL/kg in sulfasalazine group), once a day, for 7 consecutive days, and the feces of the animals and whether there is death were observed every day. On the 8th day, the animals were killed under CO2 overdose anesthesia followed by being dissected, the entire colon tissue was extracted, the contents of the colon were cleaned after longitudinal dissection along the mesenteric side, the colon was weighed and measured for its length, the area of the ulcer was measured, and the general situation was observed and photos were taken. Finally, the colon was fixed in 10% formalin, and H&E staining and histopathological analysis (inflammation, goblet cells, lesion depth, ulcer degree, crypt abscess) were performed.
Wherein, the compound of Example 3 of the invention, purity: 99.74%. • Etrasimod, prepared according to the literature method (the second isomer of Example 1.29 in WO2010/011316A1), purity: 98.47%. • Ozanimod, prepared according to the literature method (compound 86 in WO2011/060392A1), purity: 99.78%. • Sulfasalazine enteric-coated tablets, produced by Shanghai Fuda Pharmaceutical Co., Ltd., 0.25 g/tablet. Enteric coated tablets show yellow to brownish yellow after the coating is removed. • Solutol: Beijing Fengli Jingqiu Pharmaceutical Co., Ltd. • Solvent preparation: • DMSO, Solutol and 0.9% sodium chloride solution were mixed according to the volume ratio of 5:10:85 to prepare the solvent.
Preparation of compound of Example 3 and Etrasimod solution: 27 mg of test substances were taken respectively and dissolved in 45 mL of solvent to obtain corresponding test substance solution.
Ozanimod: 90 mg Ozanimod was dissolved in 45 mL solvent to obtain Ozanimod solution.
Preparation of SASP solution: six sulfasalazine enteric-coated tablets after grinding were added to 41.7 mL 0.5% CMC-Na, and then dissolved by ultrasonic to obtain SASP solution.
Due to the excipient factor of SASP drug preparation, the concentration should not be too high when suspended in 0.5% CMC-Na, otherwise the suspension was uneven and the mobility was poor, so the dose volume of SASP was doubled compared with the compound of Example 3 and Etrasimod.

SMILES: O=C(O)CCn1ccc2cc(OCc3ccc(C4CCCC4)c(C(F)(F)F)c3)cc(Cl)c21 [Compound of Example 3, 3-(7-chlorine-5-((4-cyclopentyl-3-(trifluoromethyl)benzyl)oxy)-1H-indole-1-yl)propionic acid]
- Colon length: 13.66 ± 0.63 cm
- Colon weight: 2.07 ± 0.17 g
- Colon weight/colon length: 0.15 g/cm
- Ulcer area: 53.87 ± 24.01 mm^2
- General anatomical view of colon, from excellent to poor: group using compound of Example 3>group using sulfasalazine>group using Etrasimod>group using Ozanimod
- Weight (Day 1): 247 ± 0.55 g
- Weight (Day 2): 224.6 ± 0.51 g
- Weight (Day 3): 226.3 ± 0.85 g
- Weight (Day 4): 233.6 ± 1.45 g
- Weight (Day 5): 238.5 ± 1.57 g
- Weight (Day 6): 245 ± 1.74 g
- Weight (Day 7): 258.8 ± 1.61 g
- Weight (Day 8): 267.9 ± 1.44 g
- Weight course compared with model group (SASP 360 mg/kg, Example 3 and Etrasimod 3 mg/kg, oral once a day): a certain tendency to inhibit the weight loss
- Drug efficacy intensity (colon weight): group using the compound of Example 3 (3 mg/kg)>group using Etrasimod (3 mg/kg)>group using sulfasalazine (360 mg/kg)>model group>group using Ozanimod (10 mg/kg)

SMILES: O=C(O)C[C@H]1CCc2c1[nH]c1ccc(OCc3ccc(C4CCCC4)c(C(F)(F)F)c3)cc21 [Etrasimod, reference compound]
- Colon length: 13.56 ± 0.54 cm
- Colon weight: 2.54 ± 0.25 g
- Colon weight/colon length: 0.19 g/cm
- Ulcer area: 177.97 ± 56.5 mm^2
- General anatomical view of colon, from excellent to poor: group using compound of Example 3>group using sulfasalazine>group using Etrasimod>group using Ozanimod
- Weight (Day 1): 251.6 ± 0.5 g
- Weight (Day 2): 225.5 ± 0.56 g
- Weight (Day 3): 223.9 ± 0.94 g
- Weight (Day 4): 221.8 ± 1.51 g
- Weight (Day 5): 224.4 ± 1.73 g
- Weight (Day 6): 230.1 ± 2.04 g
- Weight (Day 7): 245.5 ± 1.85 g
- Weight (Day 8): 255.8 ± 1.6 g
- Drug efficacy intensity (colon weight): group using the compound of Example 3 (3 mg/kg)>group using Etrasimod (3 mg/kg)>group using sulfasalazine (360 mg/kg)>model group>group using Ozanimod (10 mg/kg)
